Data on three molecules can be found in patent US20110028398A1, “METHODS FOR TREATING AND LIMITING FIBROTIC DISORDERS AND KELOIDS” (The Arizona Board of Regents, a body corporate acting for …, priority 2006, published 2011).

The subject of test [1] is CTGF expression in renal fibroblasts. The conditions noted are these: Ott et al., 2003; cited from earlier work.
Test [2] relates to CTGF expression in human keloid fibroblasts. In words: TGF-β1-induced CTGF expression, Western blot densitometry related to GAPDH. It counts as cell-based. How it is done:
Fibroblast culture: Human keloid fibroblasts were grown in 10 cm^2 dishes to 70% confluence in DMEM with 10% FBS and additional penicillin and streptomycin (1%), at 37° C. and 10% CO2. Cells were serum starved in DMEM containing 0.5% FBS for 48 h before the experiment. At the start of the assay, fresh media was added to the dishes, and cells were either untreated (control) or treated with TGF-β1 (doses ranging from 0.6 to 5 ng/mL), P20 phosphopeptide (doses ranging from 50-200 μM), forskolin (FSK, 10 μM) or SNAP (500 μM) for 24 h. To verify the influence of serum starvation, we also had cells in 10% FBS containing medium (control high serum).
Western blot analysis: At the end of the experiment, cells were rinsed with PBS, and homogenized using UDC buffer. Lysates were mixed, centrifuged (6000×g) for 20 min, and the supernatant was used for determination of CTGF and collagen expression. Samples (20 μg of protein) were loaded on 15 or 10% SDS-PAGE gels, and the proteins were electrophoretically transferred to Immobilon membranes. […] Protein-antibody complexes were visualized using the Odyssey direct infrared fluorescence imaging system (Li-Cor, Lincoln, Nebr.). […]
P20 treatment and CTGF expression: Human keloid fibroblasts were serum-starved in DMEM medium containing 0.5% FBS for 48 hours, stimulated with TGF-beta1 doses ranging from 1.2 to 5 ng/mL and concomitantly treated with the P20 phosphopeptide (50, 100 or 200 μM) for 24 hours. Western blot bands were quantified by densitometry, and CTGF expression was related to GAPDH expression to correct for loading differences. […]
Treatment with compounds that elevate cAMP and cGMP: We next evaluated the influence of compounds that elevate cAMP (Forskolin, FSK) or cGMP (SNAP) on CTGF expression in keloid fibroblasts. […] Western blot bands were quantified by densitometry, and CTGF expression was related to GAPDH expression to correct for loading differences. […]
In general terms: In western blotting, separated proteins are transferred to a membrane and probed.

As to latrunculin, the CTGF expression result in test [1] was “decreased”.

On to `C=C[C@@]1(C)CC(=O)[C@]2(O)[C@@]3(C)[C@@H](O)CCC(C)(C)[C@@H]3[C@H](O)[C@H](OC(C)=O)[C@@]2(C)O1` [FSK, forskolin], for which the “decrease of CTGF expression” value in test [2] (TGF-β1-stimulated fibroblasts (2.5 ng/mL), FSK 10 μM, 24 h) is on record as about 50%.

Consider `CC(=O)N[C@@H](C(=O)O)C(C)(C)SN=O` (racemic) [SNAP], for which, in test [2] (TGF-β1-stimulated cells, SNAP 500 μM), the “decrease of CTGF expression” value is “did not decrease”. In test [2] (non-stimulated cells, SNAP 500 μM, p<0.05), the “CTGF expression compared to untreated (control) cells” value is “two-time increase”.
